The text below walks through data of US11292787B2, “Five-membered-fused-six-membered aza-aromatic ring compound, preparation method thereof, pharmaceutical composition and application thereof” (XIAMEN UNIVERSITY, priority 2017, dated 2022).

The target in assay [1] is T1, K-Ras protein (Homo sapiens, UniProt P01116, G12V).
T1 construct: in SW620 cells, compound I-a-1 can effectively enhance the degradation of endogenous K-RAS-G12V proteins; endogenous in cells; host or cells: SW-620
Put plainly: K-Ras protein degradation rate by Western blot in SW-620 cells. The following applies: for percent K-Ras protein degradation (single point) at 10 µM: SW-620 cells, 24 h, Western blot, relative to DMSO control, read-out: Degradation rate of compounds at 10 μM on Ras protein (%). The format is cell-based. Here is the method:
(§1) Inhibitory activity of compounds on K-RAS was evaluated by the degradation rate of protein level of administration group relative to control group (Cell Rep 2014, 7, 871-882).
(§2) The specific method was as follows:
1. Cell plating: SW-620 cells in logarithmic growth phase were inoculated into a 24-well plate at 2×10^4/well, and cultured in a 37° C., 5% CO2 incubator.
2. Administering drug to cells: after 24 h of culture, various drug stocks […]; the original solution in the 24-well plate was discarded, to which was added the obtained drug solution, with the DMSO group as the blank control; after the drug solution was added, the 24-well plate was transferred to the 37° C. CO2 incubator to continue the culture.
3. Detection of K-Ras protein level: after 24 h of administration and culture, the liquid in the well was discarded, the cells were routinely collected, and rinsed twice with 1×PBS, a cell lysate was added to extract the total cellular protein, and the protein concentration was determined by BCA method. 30 μg of the protein sample was taken for SDS-polyacrylamide gel electrophoretic transmembrane, the membrane was blocked sequentially, incubated with K-Ras antibody (1:1000) and internal reference antibody β-actin (1:2000) respectively overnight at 4° C., rinsed with TBST for 5 min×3 times, then incubated with the addition of the corresponding horseradish peroxidase-labeled secondary antibody (1:5000) for 1-2 h, and rinsed with TBST for 5 min×3 times. Finally, chemiluminescence image was acquired using Image Lab software.
4. Calculation of single-point K-Ras protein degradation rate: quantitative and calibration analysis of K-Ras and β-actin were conducted using Image-Lab software, and then the intracellular K-Ras degradation rate was calculated according to the following formula: single-point K-Ras protein degradation rate (%)=(control group−administration group)/control group×100%. The drug with degradation rate ≥20% was selected for soft agar experiment.
For orientation: In western blotting, separated proteins are transferred to a membrane and probed.

In assay [2] the test system is SW620 cells. Put plainly: Soft agar colony formation, SW620 cells (K-RAS-G12V). The assay is classed as cell-based. The following applies: K-RAS-G12V genetic background, FIG. 2b. Here is the method: as §2
(§3) 1) 1% agar was formulated, and autoclaved. 1% agar was heated and melted in a boiling water bath before use, and then cooled in a 40° C. water bath (by holding in the bath for at least 30 minutes, the agar was cooled to a temperature of 40° C.); at the same time, 2×DMEM/FBS was placed in a warm bath. 2) A bottom agar with 0.5% agar was prepared by mixing 1% agar with 2×DMEM/FBS in a sterile tube at a volume ratio of 1:1. The mixed solution was added to a 6-well plate rapidly at 1.5 ml per well, shaked slightly, and placed at room temperature for solidification (after solidification, the bottom agar could be stored at 4° C. for 1 week. Before use, it was placed at room temperature for at least 30 minutes to return to room temperature).
(§4) 1) A mixed solution with a final concentration of 0.3% agar+1×DMEM/FBS was formulated in a sterile tube using 1% agar, 2×DMEM/FBS and sterile water at a temperature of 40° C. The prepared mixed solution was placed in a 40° C. water bath for use.
(§5) 2) The cells were trypsinized and counted. The cell density was adjusted according to the needs of the experiment. […]

The test system of assay [3] is SW620 xenograft. Put plainly: Nude mouse SW620 xenograft tumor experiment. The assay is classed as in vivo, nude mice. The following applies: tail vein, 40 mg/kg, 80 mg/kg per day, 10 days. Here is the method: as §2
1. 4-5 weeks old nude mice were subcutaneously injected with a SW620 cell suspension with a cell number controlled at about 5×10^6.
2. The tumor-bearing condition was observed after two to three days, and the mice were administered when the tumor volume was about 150 mm^3.
4. The mice were injected intravenously regularly with drug or control solvent every day, and the daily tumor volume was recorded.
5. The mice were continuously administered for 10 days, and the changes in tumor volume of the drug-administered group and the control group were observed.
6. 10 days later, eyeball blood was taken from all mice, and blood samples were kept for subsequent testing. After the mice were killed, the subcutaneously growing tumors were completely taken out, the tumor weights were recorded, and the tumors were stored in liquid nitrogen for subsequent testing.

Assay [4] concerns the target T2, K-RAS-G12V (Homo sapiens, UniProt P01116, G12V).
T2 construct: expressed in transfected cells; host or cells: 293T
Put plainly: Degradation of overexpressed K-RAS-G12V protein in 293T cells (FIG. 1a). The format is cell-based. The following applies: 293T cells overexpressing K-RAS-G12V. Here is the method:
as §1

The subject of assay [5] is MCF-7 cells. Put plainly: Soft agar colony formation, MCF-7 cells (K-RAS-WT). The following applies: K-RAS-WT genetic background, FIG. 2a. The format is cell-based. Here is the method: as §2, §3, §4, §5
Assay [6] concerns HT-29 cells. Put plainly: Soft agar colony formation, HT-29 cells (RAF mutation). The assay is classed as cell-based. The following applies: RAF mutation genetic background, FIG. 2c. Here is the method:
as §2, §3, §4, §5

“Also recorded” adds a separate entry of the source.

Consider `O=C(NCc1c(F)cccc1Cl)c1csc(-c2n[nH]c3ncccc23)c1` [III-a-1], for which the percent K-Ras protein degradation (single point) at 10 µM in assay [1] was found to be 21%. Further, in assay [2], the “colony formation on soft agar” value is listed as “can effectively inhibit colony formation of the cells”.

With `O=C(NCc1c(F)cccc1Cl)c1csc(-c2n[nH]c3ccccc23)c1` [I-a-1], the “tumor growth (tumor volume)” value in assay [3] (FIG. 3a) is “could effectively inhibit the growth of cancer cells with RAS positive genetic background in nude mice; also recorded: can effectively inhibit the increase of tumor volume and has good dose dependence”. Besides, the final tumor weight result in assay [3] (FIG. 3b) is “obviously smaller than that of the control group”. Also, in assay [4], the “degradation of exogenous overexpressed RAS (K-RAS-G12V) protein” value was “can effectively enhance the degradation of exogenous overexpressed RAS proteins and has good concentration dependence”. Besides, the figures for the “colony formation on soft agar” value in assay [5] and in assay [6] were “can effectively inhibit colony formation of the cells” and “does not inhibit colony formation of the cells”, respectively. Further, the percent K-Ras protein degradation (single point) at 10 µM in assay [1] was 52%. Moreover, the “degradation of endogenous K-RAS-G12V protein” value in assay [1] (SW620 cells, FIG. 1b) is “can effectively enhance the degradation of endogenous K-RAS-G12V proteins and has good concentration dependence”.
